The source of these data is US7115642B2, “Substituted diphenyl isoxazoles, pyrazoles and oxadiazoles useful for treating HCV infection” (priority 2003, dated 2006).

In data set [1] the test system is HCV nonstructural protein NS5A or NS3 in 9–13 replicon cells. Description: Quantitative Western blot assay. In kind it is cell-based, Hepatitis C virus. The note with it: 9–13 replicon cells, NS5A or NS3 Western blot; read-out: Western IC50. How it is done:
Alternatively, the inhibitory activity of the compounds can be confirmed using a quantitative Western immunoblot assay utilizing antibodies specific for HCV non-structural proteins, such as NS3, NS4A NS5A and NS5B. In one embodiment of this assay, replicon cells are treated with varying concentrations of test compound to determine the concentration of test compound that yields a 50% reduction in the amount of a non-structural protein produced as compared to a control sample (IC50). A single non-structural protein may be quantified or multiple non-structural proteins may be quantified. Antibodies suitable for carrying out such immunoblot assays are available commercially (e.g., from BIODESIGN International, Saco, Me.).
Certain exemplary compounds of the invention were also tested for their ability to inhibit HCV replication using a quantitative Western blot analysis with antibodies specific for the HCV nonstructural protein NS5A or NS3. Actively dividing 9–13 replicon cells were seeded into Swell plates at a density of 1×10^5 cells/well in a volume of 2 ml/well and incubated at 37° C. and 5% CO2 for 24 hours. Various concentrations of test compounds (in a volume of 10 ul) were added to the wells and the cells incubated for another 48 hours. Protein samples were prepared from the cultured cells, resolved on a SDS-PAGE gel and transferred to a nitrocellulose membrane. The membrane was blocked with 5% non-fat milk in PBS for 1 hour at room temperature. Primary antibody (anti NS5A antibody; BIODESIGN International, Saco, Me. or anti NS3 antibody, Rigel) incubation was performed for 1 hour at room temperature, after which the membrane was washed 3 times (for 15 min per time) with PBST (PBS plus 0.1% Tween 20). Horseradish peroxidase conjugated secondary antibody incubation was performed for 1 hour at room temperature and the membrane was washed 3 times (for 15 min per time) with PBST. The membrane was then soaked in substrate solution (Pierce) and exposed to a film or quantified using an imager. In this assay, the amount of test compound that yielded a 50% reduction in the amount of NS5A or NS3 protein translated as compared to a control sample (IC50) was determined.
In TABLE 1, a value of “+” indicates an IC50 of 10 μM or less in the specified assay; a value of “−” indicates an IC50 of greater than 10 μM in the specified assay.
In general terms: A western blot detects proteins with antibodies after separation by electrophoresis.

Data set [2] relates to HCV replicon (5-2 Luc replicon-comprising cells). Description: HCV replicon assay (luciferase). The conditions noted are these: 5-2 Luc replicon cells, luciferase readout, read-out: Replicon IC50. In kind it is cell-based, Hepatitis C virus. The method in brief:
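Readout: IC50 from a 50% drop in luciferase signal (Bright-Glo, luminometer), scored + (≤10 μM) or − (>10 μM). Compounds added at various concentrations to 5-2 Luc replicon cells (Huh7 background), pre-incubated 24 h, then incubated 24 h more before reading.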
A general note: A replicon is a self-replicating genome or part of one, used to study replication in cells.

A short description of data set [3]: Cytotoxicity assay (Cell Titer Glo). The format is cell-based. The note with it: human; 48 hr with compound, ATP-dependent Cell Titer Glo assay; read-out: IC50 in cytotoxicity assay (number of viable cells). How it is done:
Compounds 67, 167, 169, 13, 1, 145, 29, 119, 63, 31, 39, 103, 123, 121, 97, 129, 79, 111, 85, 89, 109, 127, 131, 95, 47, 57, 69, 165, 161, 163, 3, 137, 15, 141, 41, 53, 33, 113, 93, 105, 77, 91, 81, 83, 35, 27, 65, 7, 135, 51, 139, 51, 49, 143, 5, 149, 11, 37, 21, 45, 61, 75, 23, 125, 73, 43, 171 and 101 were tested in a cytotoxicity assay with liver cells including an HCV replicon (5-2 Luc cells, 9–13 cells or Huh-7 cells). In the assay, cells were seeded onto 96-well plates (approx. 7500 cells/well in a volume of 90 μl) and grown for 24 hr at 37° C. On day 2, various concentrations of test compound (in a volume of 10 μl) were added to the wells and the cells were grown for an additional 48 hr at 37° C. On day 4, an ATP-dependent R-Luciferase assay (Cell Titer Glo assay) was performed to determine the number of viable cells.
In general terms: Cellular ATP, detected with luciferase, serves as a proxy for viable cell number.

Read-outs that look alike come from different tables or passages of the source.

Usually IC50 stands for the concentration that gives 50% inhibition. Regarding `O=C(Nc1cccc(-c2cc(-c3c(Cl)cccc3N3CCOCC3)no2)c1)C(Cl)Cl` [Compound 7, 2,2-Dichloro-N-[3-[3-[2-chloro-6-(N-morpholino)phenyl]-5-isoxazolyl]phenyl]Acetamide], the IC50 in data set [1] was below 10 µM.
In the case of `CSc1cccc(F)c1-c1cc(-c2cccc(NC(=O)C(Cl)Cl)c2)on1` [Compound 11, 2,2-Dichloro-N-[3-[3-(2-fluoro-6-thiomethylphenyl)-5-isoxazolyl]phenyl]Acetamide], the IC50 in data set [1] and in data set [2] was below 10 µM each time.
For the compound `O=C(Nc1cccc(-c2cc(-c3c(F)cccc3S(=O)(=O)N3CCOCC3)no2)c1)C(Cl)Cl` [Compound 21, 2,2-Dichloro-N-[3-[3-[2-fluoro-(6-N-morpholinosulfamoyl)phenyl]-5-isoxazolyl]-phenyl]Acetamide], the 50% inhibitory concentration (IC50) in data set [1] and in data set [2] was below 10 µM each time.
In the case of `O=C(Nc1cccc(-c2cc(-c3c(N4CCOCC4)cccc3C(F)(F)F)no2)c1)C(Cl)Cl` [Compound 37, 2,2-Dichloro-N-[3-[3-[2-(N-morpholino)-6-trifluoromethylphenyl)-5-isoxazolyl]phenyl]Acetamide], the 50% inhibitory concentration (IC50) in data set [1] and in data set [2] was below 10 µM throughout.
For the compound `O=C(Nc1cccc(-c2cc(-c3c(Cl)cc(OCCN4CCOCC4)cc3Cl)no2)c1)C(Cl)Cl` [Compound 75, 2,2-Dichloro-N-[3-[3-[2,6-dichloro 4-(N-morpholinoethyleneoxy)phenyl]-5-isoxazolyl]-phenyl]Acetamide], the half-maximal inhibitory concentration (IC50) is below 10 µM in data set [1] and above 10 µM in data set [2].
For `O=C(Nc1cccc(-c2cc(-c3ccccc3OC(F)(F)F)no2)c1)C(Cl)Cl` [Compound 113, 2,2-Dichloro-N-[3-[3-(2-trifluoromethoxyphenyl)-5-isoxazolyl]phenyl]Acetamide], in data set [3], the half-maximal inhibitory concentration (IC50) at 48 h was above 10 µM. Besides, the concentration for half-maximal inhibition (IC50) in data set [2] (Hepatitis C virus) was below 10 µM.
In the same order, the values of `CC(C)Oc1ccccc1-c1cc(-c2cccc(NC(=O)C(Cl)Cl)c2)on1` [Compound 119, 2,2-Dichloro-N-[3-[3-(2-isopropyloxyphenyl)-5-isoxazolyl]phenyl]Acetamide] are above 10 µM and below 10 µM.
As for `CC(C)c1cccc(C(C)C)c1-c1cc(-c2cccc(NC(=O)C(Cl)Cl)c2)on1` [Compound 121, 2,2-Dichloro-N-[3-[3-(2,6-diisopropylphenyl)-5-isoxazolyl]phenyl]Acetamide], the 50% inhibitory concentration (IC50) at 48 h in data set [3] was above 10 µM. Further, the IC50 in data set [2] (Hepatitis C virus) is below 10 µM.
The matching figures for `COc1ccc(NC(=O)C(Cl)Cl)cc1-c1cc(-c2c(Cl)cccc2Cl)no1` [Compound 127, 2,2-Dichloro-N-[3-[3-(2,6-dichlorophenyl)-5-isoxazolyl]4-methoxyphenyl]Acetamide]: above 10 µM and below 10 µM.
As for `O=C(Nc1cccc(-c2cc(-c3ccccc3C3CCCC3)no2)c1)C(Cl)Cl` [Compound 129, 2,2-Dichloro-N-[3-[3-(2-cyclopentylphenyl)-5-isoxazolyl]phenyl]Acetamide], the half-maximal inhibitory concentration (IC50) at 48 h in data set [3] was above 10 µM. Besides, the IC50 in data set [2] (Hepatitis C virus) was below 10 µM.
In the same order, the values of `O=C(Nc1cccc(-c2cc(-c3c(Cl)ccc(Cl)c3Cl)no2)c1)C(Cl)Cl` [Compound 137, 2,2-Dichloro-N-[3-[3-(2,3,6-trichlorophenyl)-5-isoxazolyl]phenyl]Acetamide] are above 10 µM and above 10 µM.
In the same order, the values of `O=C(O)c1ccc(Cl)c(-c2cc(-c3cccc(NC(=O)C(Cl)Cl)c3)on2)c1Cl` [Compound 139, 2,2-Dichloro-N-[3-[3-(3-carboxy-2,6-dichlorophenyl)-5-isoxazolyl]phenyl]Acetamide] are above 10 µM and above 10 µM.
In the same order, the values of `O=C(Nc1cccc(-c2cc(-c3cc(C(F)(F)F)ccc3Cl)no2)c1)C(Cl)Cl` [Compound 141, 2,2-Dichloro-N-[3-[3-(2-chloro-5-trifluoromethylphenyl)-5-isoxazolyl]phenyl]Acetamide] are above 10 µM and above 10 µM.
On to `O=C(Nc1cccc(-c2cc(-c3c(Cl)cccc3Cl)no2)c1)C(F)F` [Compound 145, 2,2-Difluoro-N-[3-[3-(2,6-dichlorophenyl)-5-isoxazolyl]phenyl]Acetamide], for which the half-inhibitory concentration (IC50) at 48 h in data set [3] is above 10 µM. Also, the IC50 in data set [2] (Hepatitis C virus) was above 10 µM.
`Cc1ccc(F)c(-c2cc(-c3cccc(NC(=O)C(Cl)Cl)c3)on2)c1F` [Compound 149, 2,2-Dichloro-N-[3-[3-(2,6-difluoro-3-methylphenyl)-5-isoxazolyl]phenyl]Acetamide]: the IC50 at 48 h in data set [3] is above 10 µM. Also, in data set [2] (Hepatitis C virus), the concentration for half-maximal inhibition (IC50) is above 10 µM.
With `O=C(Nc1cccc(-c2cc(-c3ccccc3OCc3ccccc3)no2)c1)C(Cl)Cl` [Compound 161, 2,2-Dichloro-N-[3-[3-(2-benzyloxyphenyl)-5-isoxazolyl]phenyl]Acetamide], the IC50 at 48 h in data set [3] is above 10 µM. The IC50 in data set [2] (Hepatitis C virus) was above 10 µM.
On to `Cc1ccc(-c2cc(-c3c(Cl)cccc3Cl)no2)cc1NC(=O)C(Cl)Cl` [Compound 165, 2,2-Dichloro-N-[3-[3-(2,6-dichlorophenyl)-5-isoxazolyl]-6-methylphenyl]Acetamide], for which the half-inhibitory concentration (IC50) at 48 h in data set [3] is above 10 µM. Besides, the 50% inhibitory concentration (IC50) in data set [2] (Hepatitis C virus) is above 10 µM.
Consider `Cc1c(NC(=O)C(Cl)Cl)cccc1-c1cc(-c2c(Cl)cccc2Cl)no1` [Compound 167, 2,2-Dichloro-N-[3-[3-(2,6-dichlorophenyl)-5-isoxazolyl]-2-methylphenyl]Acetamide], for which the IC50 at 48 h in data set [3] is above 10 µM. The 50% inhibitory concentration (IC50) in data set [2] (Hepatitis C virus) was above 10 µM.
Regarding `Cc1ccc(C(=O)N2CCN(c3cccc(Cl)c3-c3cc(-c4cccc(NC(=O)C(Cl)Cl)c4)on3)CC2)cc1` [Compound 665], the IC50 in data set [1] and in data set [2] was below 10 µM in each case.
Regarding `CC(C)(C)OC(=O)NC1CCN(c2cccc(Cl)c2-c2cc(-c3cccc(NC(=O)C(Cl)Cl)c3)on2)C1` (centres unmarked) [Compound 671], the concentration for half-maximal inhibition (IC50) in data set [1] and in data set [2] was below 10 µM throughout.
With `CC(C)(C)OC(=O)NC1CCN(c2cccc(Cl)c2-c2cc(-c3cccc(NC(=O)C(Cl)Cl)c3)on2)C1` (centres unmarked) [Compound 672], the IC50 in data set [1] and in data set [2] was below 10 µM each time.
As for `NC1CCN(c2cccc(Cl)c2-c2cc(-c3cccc(NC(=O)C(Cl)Cl)c3)on2)C1` (centres unmarked) [Compound 673], the IC50 in data set [1] was below 10 µM.
In the case of `NC1CCN(c2cccc(Cl)c2-c2cc(-c3cccc(NC(=O)C(Cl)Cl)c3)on2)C1` (centres unmarked) [Compound 674], the IC50 in data set [1] and in data set [2] was below 10 µM throughout.
Regarding `CN(C)C(=O)NC1CCN(c2cccc(Cl)c2-c2cc(-c3cccc(NC(=O)C(Cl)Cl)c3)on2)C1` (centres unmarked) [Compound 675], the IC50 in data set [1] is below 10 µM.
With `CN(C)C(=O)NC1CCN(c2cccc(Cl)c2-c2cc(-c3cccc(NC(=O)C(Cl)Cl)c3)on2)C1` (centres unmarked) [Compound 676], the IC50 in data set [1] and in data set [2] was below 10 µM throughout.
On to `COC(=O)c1cccc(Cl)c1-c1cc(-c2cccc(NC(=O)C(Cl)Cl)c2)on1` [Compound 680], for which the IC50 in data set [1] and in data set [2] was below 10 µM in each case.
As to `CS(=O)(=O)NC1CCN(c2cccc(Cl)c2-c2cc(-c3cccc(NC(=O)C(Cl)Cl)c3)on2)C1` (centres unmarked) [Compound 682], the 50% inhibitory concentration (IC50) in data set [1] was below 10 µM.
With `O=C(Nc1cccc(-c2cc(-c3c(Cl)cccc3C(=O)N3CCOCC3)no2)c1)C(Cl)Cl` [Compound 689], the IC50 in data set [1] was below 10 µM.
Take `O=C(Nc1cccc(-c2cc(-c3c(Cl)cccc3C(=O)N3CCN(c4ccccc4)CC3)no2)c1)C(Cl)Cl` [Compound 690]: the IC50 in data set [1] and in data set [2] was below 10 µM throughout.
